Measured values taken from US20230076733A1, “Combination Therapy” (AGENCY FOR SCIENCE, TECHNOLOGY AND RESEARCH, priority 2020, published 2023).
Where “and” joins values, the source holds several entries; their conditions need not be identical. Identical values can stand only once.

Columns and labels:
Assay type in all cases: cell-based
EGI-1 cells = assay: soft agar colony formation assay, EGI-1 cells; conditions: for Colony count: duplicate wells
Description: (§1) The IC50 and EC50 values for each combination partner (a) and (b) with the specific cell lines are determined from the response plot. A dose-response assay for each combination partner and the combination at different concentrations based on the IC50 values of each combination partner was performed. Computed EC50-EC95 values were then generated by a software (as disclosed herein) based on the drug concentration and the respective colony growth numbers.
(§2) 6. Cell lines used and number of cells seeded per well
(§3) (1) Base Layer—0.6% Agar per 300 μL per well.
(§4) Microwave the agar for 1-2 min so that it is completely melted. Add 5.4 ml of the melted agar into 21.6 ml of pre-warmed media (All media and agar preparation is made in excess for 2.5 plates). Aliquot 300 μl of the suspension into each well, avoiding the first and last columns of the plates. Fill the first and last columns of wells with 500 μl of sterile water or phosphate buffered saline. Incubate the plates in 37° C. incubator for 45 min-1 hr to allow agar to solidify.
(§5) (2) Middle Layer— 0.3% Agar plus corresponding number of cells per well
(§6) Trypsinize the adherent cells and suspend them in 5 ml of media. Determine the number of cells in the suspension and calculate the volume of cell suspension required for seeding. Mix the agar and media together first, excluding the volume of cell suspension. Add the cell suspension last into the mixture. Mix well and aliquot 250 μl into each well containing the base layer. Incubate the plates in a 37° C. incubator for 1-1.5 hrs to allow the agar to solidify.
(§7) Prepare the required concentration of compounds based on the IC50 values of each drug.
(§8) (Pre-determine the IC50 values for each drug with the corresponding cell-line using a dose-response assay)
(§9) Row A& B: Aliquot 250 μl of diluted Drug A per well
(§10) Row C&D: Aliquot 250 μl of diluted Drug B per well
(§11) Row E& F: Aliquot 250 μl of diluted Drug A and B mixed at 1:1 ratio for each well
(§12) Assay Results Analysis Method • 1. Score the colonies after 2 to 3 weeks depending on the colony forming status for different cell line. • 2. Before scoring the colonies, add 35 μl MTT (5 mg/ml) to the wells with cells and incubate at 37° C. for 2-3 hrs depending on the intensity of colour development. • 3. Once the colonies are stained, count the total number of colonies formed using the Oxford Optronix GelCount® instrument. • 4. Average the total number of colonies obtained for each drug dose point and represent it as a fraction over the control. This represents the fraction of colony growth. […] Incorporate the fraction of inhibition and the corresponding dose values into the Chou Talalay Software available online (http://www.combosyn.com/) to obtain the combination index values. • 6. The combination index values will give an indication as to whether the combined drugs are synergistic, antagonistic or additive in the treated cells, as shown in Table 2 below.
FIG. 2 illustrates a dose-response assay plate containing EGI-1 cells (Test 1) after testing compounds at different concentrations based on the IC50 values of each compound. EGI-1 is a cell line established from cholangiocarcinoma (bile duct adenocarcinoma).

TFK-1 cells = assay: soft agar colony formation assay, TFK-1 cells; conditions: for Colony count: duplicate wells
Description: as §1, §2, §3, §4, §5, §6, §7, §8, §9, §10, §11, §12
FIG. 10 illustrates a dose-response assay plate containing TFK-1 cells (Test 1) after testing compounds at different concentrations based on the IC50 values of each compound. TFK-1 is a cell line established from cholangiocarcinoma (bile duct adenocarcinoma).

HPAF-II cells = assay: soft agar colony formation assay, HPAF-II cells; conditions: HPAF-II, duplicate wells
Description: as §1, §2, §3, §4, §5, §6, §7, §8, §9, §10, §11, §12
FIG. 4 illustrates of a dose-response assay plate containing HPAF-II cells (Test 1) after testing compounds at different concentrations based on the IC50 values of each compound. HPAF-II is a cell line established from pancreatic ductal adenocarcinoma (pancreatic cancer).

CFPAC-1 cells = assay: soft agar colony formation assay, CFPAC-1 cells; conditions: for Colony count: duplicate wells
Description: as §1, §2, §3, §4, §5, §6, §7, §8, §9, §10, §11, §12
FIG. 8 illustrates a dose-response assay plate containing CFPAC-1 cells (Test 1) after testing compounds at different concentrations based on the IC50 values of each compound. CFPAC-1 is a cell line established from cystic fibrosis and pancreatic ductal adenocarcinoma.

## O=C(c1cc(Cc2n[nH]c(=O)c3ccccc23)ccc1F)N1CCN(C(=O)C2CC2)CC1 [Olaparib, reference compound]
EGI-1 cells; EGI-1, Test 1, 0.25x IC50: dose Olaparib 2.16362, Ex 1 0.00687, combination both 1:1
  Colony count: 1658 and 1605
EGI-1 cells; EGI-1, Test 1, 0.5x IC50: dose Olaparib 4.32725, Ex 1 0.01375, combination both 1:1
  Colony count: 1362 and 1300
EGI-1 cells; EGI-1, Test 1, 1x IC50: dose Olaparib 8.6545, Ex 1 0.0275, combination both 1:1
  Colony count: 935 and 908
EGI-1 cells; EGI-1, Test 1, 2x IC50: dose Olaparib 17.309, Ex 1 0.055, combination both 1:1
  Colony count: 454 and 489
EGI-1 cells; EGI-1, Test 1, 4x IC50: dose Olaparib 34.618, Ex 1 0.11, combination both 1:1
  Colony count: 209 and 197
EGI-1 cells; EGI-1, Test 2, 0.25x IC50: dose Olaparib 2.16362, Ex 1 0.00687, combination both 1:1
  Colony count: 1591 and 1717
EGI-1 cells; EGI-1, Test 2, 0.5x IC50: dose Olaparib 4.32725, Ex 1 0.01375, combination both 1:1
  Colony count: 1403 and 1442
EGI-1 cells; EGI-1, Test 2, 1x IC50: dose Olaparib 8.6545, Ex 1 0.0275, combination both 1:1
  Colony count: 856 and 1052
EGI-1 cells; EGI-1, Test 2, 2x IC50: dose Olaparib 17.309, Ex 1 0.055, combination both 1:1
  Colony count: 445 and 482
EGI-1 cells; EGI-1, Test 2, 4x IC50: dose Olaparib 34.618, Ex 1 0.11, combination both 1:1
  Colony count: 144 and 198
EGI-1 cells; Homo sapiens, EGI-1 cells, pre-determined by dose-response assay
  IC50: 8.65 µM
TFK-1 cells; TFK-1, Test 1, 0.25x IC50: dose Olaparib 4.5, Ex 1 3, combination both 1:1
  Colony count: 759 and 668
TFK-1 cells; TFK-1, Test 1, 0.5x IC50: dose Olaparib 9, Ex 1 6, combination both 1:1
  Colony count: 674 and 531
TFK-1 cells; TFK-1, Test 1, 1x IC50: dose Olaparib 18, combination both 1:1
  Colony count: 381 and 437
TFK-1 cells; TFK-1, Test 1, 2x IC50: dose Olaparib 36, Ex 1 24, combination both 1:1
  Colony count: 270 and 204
TFK-1 cells; TFK-1, Test 1, 4x IC50: dose Olaparib 72, Ex 1 48, combination both 1:1
  Colony count: 96 and 75
TFK-1 cells; TFK-1, Test 2, 0.25x IC50: dose Olaparib 4.5, Ex 1 3, combination both 1:1
  Colony count: 737 and 676
TFK-1 cells; TFK-1, Test 2, 0.5x IC50: dose Olaparib 9, Ex 1 6, combination both 1:1
  Colony count: 698 and 621
TFK-1 cells; TFK-1, Test 2, 1x IC50: dose Olaparib 18, combination both 1:1
  Colony count: 447 and 437
TFK-1 cells; TFK-1, Test 2, 2x IC50: dose Olaparib 36, Ex 1 24, combination both 1:1
  Colony count: 267 and 213
TFK-1 cells; TFK-1, Test 2, 4x IC50: dose Olaparib 72, Ex 1 48, combination both 1:1
  Colony count: 148 and 75
TFK-1 cells; TFK-1 cells, pre-determined by dose-response assay
  IC50: 18 µM
HPAF-II cells; Test 1, 0.25x IC50: dose Olaparib 9.7975, Ex 1 0,001929, combination both 1:1
  Colony count: 522 and 507
HPAF-II cells; Test 1, 0.5x IC50: dose Olaparib 19.535, Ex 1 0.003883, combination both 1:1
  Colony count: 498 and 471
HPAF-II cells; Test 1, 1x IC50: dose Olaparib 39.19, Ex 1 0,007577, combination both 1:1
  Colony count: 381 and 427
HPAF-II cells; Test 1, 2x IC50: dose Olaparib 78.38, Ex 1 0.015354, combination both 1:1
  Colony count: 313 and 244
HPAF-II cells; Test 1, 4x IC50: dose Olaparib 156.76, Ex 1 0.030707, combination both 1:1
  Colony count: 237 and 206
HPAF-II cells; Test 2, 0.25x IC50: dose Olaparib 9.7975, Ex 1 0.001929, combination both 1:1
  Colony count: 550 and 426
HPAF-II cells; Test 2, 0.5x IC50: dose Olaparib 13.595, Ex 1 0.003838, combination both 1:1
  Colony count: 443 and 375
HPAF-II cells; Test 2, 1x IC50: dose Olaparib 39.19, Ex 1 0.007677, combination both 1:1
  Colony count: 278 and 248
HPAF-II cells; Test 2, 2x IC50: dose Olaparib 78.38, Ex 1 0.015354, combination both 1:1
  Colony count: 239 and 172
HPAF-II cells; Test 2, 4x IC50: dose Olaparib 156.76, Ex 1 0.030707, combination both 1:1
  Colony count: 142 and 92
CFPAC-1 cells; CFPAC-1, Test 1, 0.25x IC50: dose Olaparib 1.5625, Ex 1 0.00675, combination both 1:1
  Colony count: 441 and 429
CFPAC-1 cells; CFPAC-1, Test 1, 0.5x IC50: dose Olaparib 3.125, Ex 1 0.0135, combination both 1:1
  Colony count: 314 and 309
CFPAC-1 cells; CFPAC-1, Test 1, 1x IC50: dose Olaparib 6.25, Ex 1 0.027, combination both 1:1
  Colony count: 259 and 289
CFPAC-1 cells; CFPAC-1, Test 1, 2x IC50: dose Olaparib 12.5, Ex 1 0.054, combination both 1:1
  Colony count: 194 and 196
CFPAC-1 cells; CFPAC-1, Test 1, 4x IC50: dose Olaparib 25, Ex 1 0.108, combination both 1:1
  Colony count: 80 and 97
CFPAC-1 cells; CFPAC-1, Test 2, 0.25x IC50: dose Olaparib 1.5625, Ex 1 0.00675, combination both 1:1
  Colony count: 586 and 545
CFPAC-1 cells; CFPAC-1, Test 2, 0.5x IC50: dose Olaparib 3.125, Ex 1 0.0135, combination both 1:1
  Colony count: 439 and 442
CFPAC-1 cells; CFPAC-1, Test 2, 1x IC50: dose Olaparib 6.25, Ex 1 0.027, combination both 1:1
  Colony count: 328 and 371
CFPAC-1 cells; CFPAC-1, Test 2, 2x IC50: dose Olaparib 12.5, Ex 1 0.054, combination both 1:1
  Colony count: 254 and 255
CFPAC-1 cells; CFPAC-1, Test 2, 4x IC50: dose Olaparib 25, Ex 1 0.108, combination both 1:1
  Colony count: 116 and 111
CFPAC-1 cells; Homo sapiens, CFPAC-1 cells, pre-determined by dose-response assay
  IC50: 6.25 µM
